According to patent publication US20100303904A1, “TABLET WITH REMEDIAL COMPOSITION AND METHODS FOR TREATING MEDICAL DISORDERS AND AILMENTS” (BIO-PRO MEDICAL LTD., priority 2007, published 2010):

How the values were obtained:
[1] = test system: Aberrant Crypt Foci (ACF); assay: DMH-induced CRC model of aberrant crypt foci (ACF) in rats (Example 1); format: in vivo, Wistar rats; details: DMH 30 mg/kg rats; oral gavage; colons stained 60 days after DMH; Coltect 150 mg/kg, 5-ASA 50 mg/kg
Protocol: Age- and sex-matched 23 Wistar rats were purchased from the animal facilities at the Tel-Aviv Sourasky Medical Center (TASMC). The rats were injected subcutaneously twice a week for two weeks with 0.3 ml of 30 mg/kg body weight DMH (Sigma-Aldrich, Israel) dissolved in PBS, and groups (n=5) were randomly divided as follows (Table 1): The Coltect mixture was dissolved in a solution of DMSO (50%) and tap water. The solution was administered to the rats by oral gavage for five days, starting at the first day of DMH injections. During the experiment, the rats were weighed twice a week. Sixty days after DMH injections the rats were sacrificed by CO2 flow. The colons were removed and flushed with isotonic saline solution, opened longitudinally, cut into three parts of equal length, and labeled as proximal, middle and distal segments. The colons were laid open on a Wattman paper and fixed flat in 4% buffered formalin solution. The ACF were visualized and counted by using methylene blue staining (0.2% solution) and photographed. […] The number and multiplicity of ACF for each colonic segment were evaluated and recorded. The number and multiplicity of ACF were recorded separately for each segment. To determine multiplicity of ACF, the number of crypts in each focus was defined and recorded.

[2] = TNBS-induced IBD model in rats (Example 3); format: in vivo, Wistar rats; details: TNBS-induced model (FIG. 6); compared to negative and positive controls
Protocol: One day before the experiment the rats were weighted, marked according to the groups, and fasted for 24 hours (for colon emptying). At the day of the experiment the rats were anesthetized by an intra-peritoneal injection of halothene and colitis was induced by intra-rectal administration of 0.4 ml of a 25 mg/ml TNBS solution dissolved in 50% ethanol using an 8-cm long rubber catheter. Then, 0.4 ml of air was injected and the rats were kept in a Trendelenburg position for 30 sec to ensure that all TNBS solution left the catheter. Three rats received intra-rectal administration of saline and served as the negative control group. Coltect, 5-ASA, or their combination, were delivered by daily gavage of 0.5 ml solution starting from day 0. All rats were sacrificed after 7 days. Their 10-cm distal colon was removed, opened longitudinally along the anti-mesenteric side and was gently washed with ice-cold saline in order to remove all luminal content. Colon wet weight was weighed and the colonic injury was immediately examined under a stereomicroscope and the visible damage was scored, then part of the colons was placed in 10% formalin for histological evaluation and parts were frozen at […] for later evaluation. The induction and severity of colitis were evaluated by measuring: • 1. Daily body weight. • 2. Colon weight. • 3. Macro-Histological score damage.

[3] = DSS-induced IBD model in mice (Example 2); format: in vivo, C57BL mice; details: first experiment (FIG. 4A); DSS 2.5%; Coltect 150 mg/kg, 5-ASA 50 mg/kg oral gavage 7 days
Protocol: Age- and sex-matched C57BL 5-weeks old female mice were obtained from Harlan Laboratories, Israel. […] Four mice received saline (2.5%) and served as the negative control group. The mice were randomly divided into groups (n=8) and received the corresponding treatment starting from the first day for 7 days (Table 3). The treatments were given in doses of 0.5 ml of tap water with 2% DMSO by oral gavage. The following doses were used: Coltect-150 mg/kg body weight; 5-ASA-50 mg/kg body weight. All mice were sacrificed 7 days after the enema, their spleen and colon were removed, fixed in 10% formalin for histological evaluation and parts were frozen at […] for later examination. For macroscopic injury evaluation a revised colonic damage scoring system was used as described by Morris et al. Thus, the severity of colitis was determined based on the following parameters: • 1. Disease Activity Index (DAI): weight loss, gross bleeding, stool consistency (Table 2)—were daily recorded. • 2. Spleen weight. • 3. Colon length. • 4. Histological score. For histological injury evaluation tissues fixed in 10% formalin, were embedded in paraffin wax and cut. 4 μm sections were histologically stained and evaluated by light microscopy for ulceration and inflammation. [table]

[4] = test system: Aberrant Crypt Foci (ACF); assay: DMH-induced ACF formation, Coltect versus its ingredients (Example 5a); format: in vivo, Wistar rats; details: DMH 50 mg/kg rats; daily oral gavage 2 weeks; sacrificed after 2 months (FIG. 10A)
Protocol: In these experiments the concentration of the ingredients used was determined based on their ratio in the Coltect mixture. As used in the above experiments, the Coltect concentration administered to the model animals was 150 mg/kg. Since a ratio of ⅔ Curcumin to ⅓ Green Tea was used in the Coltect mixture, the administered Curcumin concentration was 100 mg/kg and the Green tea concentration was 50 mg/kg. The Curcumin to Selenium ratio in the Coltect mixture was 500 mg Curcumin to 0.1 mg Selenium, therefore, the administered Selenium concentration was 0.02 mg/kg body weight. The final administered concentrations of the Coltect components are presented in Table 6 below: Forty seven age- and sex-matched Wistar rats were obtained from the animal facility at TASMC. The rats were injected subcutaneously twice a week for two weeks with 0.3 ml of 50 mg/kg body weight DMH (Sigma-Aldrich, Israel) dissolved in PBS, and groups were randomly divided as shown in Table 7. The Coltect compound and its components were daily administered simultaneously for 2 weeks by oral gavage. The rats were sacrificed after 2 months. Reference is now made to FIG. 9 presenting Methylene blue ACF staining performed according to the protocol described in the above Example 1, of normal mucosa (A) aberrant crypt foci containing small ACF with 1-3 crypts (B) and large ACF with more than three crypts (C).

[5] = DSS-induced colitis in mice, Coltect versus its components (Example 5b); format: in vivo, C57BL mice
Protocol: In these experiments the concentration of the ingredients used was determined based on their ratio in the Coltect mixture. As used in the above experiments, the Coltect concentration administered to the model animals was 150 mg/kg. Since a ratio of ⅔ Curcumin to ⅓ Green Tea was used in the Coltect mixture, the administered Curcumin concentration was 100 mg/kg and the Green tea concentration was 50 mg/kg. The Curcumin to Selenium ratio in the Coltect mixture was 500 mg Curcumin to 0.1 mg Selenium, therefore, the administered Selenium concentration was 0.02 mg/kg body weight.
Age- and sex-matched C57BL 5-weeks old female mice were obtained from Harlan Laboratories, Israel. After one week of acclimation, the mice (n=52) were treated with 2.5% DSS administered in the drinking water for 5 days ad libitum, followed by two days of tap water. The treatments were given in doses of 0.3 ml of tap water with 2% DMSO by oral gavage. The mice were randomly divided into 8 sub-groups (n=6) and a control group (n=4) treated as described in Table 8.

SMILES | Number of crypts in treated colons: 1-3 crypts [1] | Number of crypts in treated colons: >4 crypts [1] | Changes in body weight [2] | DAI score [3] | Reduction in number of ACFs relative to the positive control [4] | DAI score ([5]; DSS 2.5% mice (FIG. 11), oral gavage) | Colon length, in words ([5]; DSS-induced mice, day seven (FIG. 12))
Nc1ccc(O)c(C(=O)O)c1 [5-ASA, 5-aminosalicylic acid] | 28 ± 4.1 | 11.6 ± 3.9 | no substantial changes in body weight | relatively higher DAI scores |  |  | 
C[Se]CC[C@H](N)C(=O)O [Selenium, Selenomethionine] |  |  |  |  | about 30% | 2.33±1.33 | longer colons
